Results: patent US20260355189A1, “SMALL MOLECULE INHIBITORS OF NEUTROPHIL EXOCYTOSIS AND INFLAMMATION” (THE SCRIPPS RESEARCH INSTITUTE, priority 2022, published 2026)

Key:
[1] = test system: human neutrophils (specific granule marker CD66b); experiment: Flow cytometry of specific granule exocytosis (CD66b) in human neutrophils; type: cell-based; details: 1 hour, GM-CSF + fMLP; for Inhibition of CD66b up-regulation: relative to DMSO; for inhibition at 10 µM: Homo sapiens, Neutrophil, FIG. 5, read-out: % inhibition of CD66b up-regulation
Text: (§1) Human neutrophils were isolated from normal donor's blood by Ficoll density centrifugation, as described previously (23). Murine bone marrow-derived neutrophils were isolated using a Percoll gradient fractionation system as described (24). A three-layer Percoll gradient was used (52%, 64%, and 72%), and neutrophils were isolated from the 64-72% interface, washed, and used in the assays.
(§2) Method: The up-regulation of granule membrane-associated neutrophil markers at the plasma membrane was analyzed by flow cytometry. In these studies, flow cytometry analysis was performed by resuspension of 1×10^6 human neutrophils in phenol red-free RPMI 1640 medium, treated with a 10 μM solution of Inhibitors C1, C2, C4, C5, and C6 and Nexinhib 20 (C20) or DMSO control for 1 hour, and stimulated with physiological agonists GM-CSF (10 ng/ml) for 30 min followed by the addition of fMLP (1 μM) to induce degranulation or left untreated at 37 °C (non-stimulated, NS). The reactions were stopped by transferring the samples to ice and immediately spinning down the cells to initiate blocking and staining. To analyze the plasma membrane expression of plasma membrane markers, the cells were blocked in ice-cold PBS containing 1% BSA and stained with phycoerythrin (PE)-, FITC-, or Alexa647-conjugated anti-human CD63, CD66b, MMP9, and CD11b antibodies that detect extracellular epitopes of these markers. The cells were then washed and fixed in 1% paraformaldehyde in PBS. Samples were analyzed using a NovoCyte flow cytometer, and the data were processed using FlowJo software.

[2] = test system: neutrophils that carry the NLRP3 A350V mutation; experiment: Secretion by bone-marrow-derived neutrophils from Nlrp3 A350V (CAPS) mice; type: cell-based, mouse; details: 10 μM, 1 hour, LPS and fMLF; for Mobilization of azurophilic granules (MPO) / Mobilization of gelatinase granules (MMP9) / Mobilization of CD63: FIG. 8; for Neutrophil secretion (hyperactivation of secretion): Nlrp3 A350V and wild type, FIG. 8A-C; for Mobilization of CD63: murine neutrophils
Text: FIG. 8A-C. […] A, gelatinase (MMP9) granules; B, azurophilic granules (MPO, myeloperoxidase); C, CD63 (an endolysosomal marker). […] Subsequently, neutrophils were either stimulated with lipopolisacharide (LPS) and the chemotatctic peptide fMLF or left untreated. C20 (Nexinhib20 is used as control). Mean±SEM, n=3. In this and subsequent figures, p<0.05; **, p<0.01; ***, p<0.001; ****, p<0.0001, ANOVA.
These compounds are now tested using neutrophils from a mouse model of Cryopyrin-Associated Periodic Syndrome (CAPS), a systemic inflammatory disease in humans, caused by gain-of-function mutations of the NOD-like receptor family member, cryopirin, also known as NLRP3 (J Cin Immunol 39, 277-286, doi:10.1007/s10875-019-00638-z (2019)). Heterozygous NLRP3 mutations lead to hyper-responsive NLRP3 inflammasome function characterized by increased caspase-1 (Casp1) activation and […], and is observed in patients and in animal models with NLRP3-gain-of-function mutations. […] Subsequently, neutrophils were either stimulated with LPS and the chemotatctic peptide fMLF or left untreated.

wild-type neutrophils = experiment: Secretion by wild-type neutrophils; type: cell-based
[3] = test system: human neutrophils (Gelatinase granule cargo MMP9); experiment: Flow cytometry of gelatinase granule exocytosis (MMP9) in human neutrophils; type: cell-based; details: 1 hour, GM-CSF + fMLP; for Inhibition in MMP9 experiment (words; printed as CD66b up-regulation): 10 μM, relative to DMSO, FIG. 6; for inhibition at 10 µM: Homo sapiens, Neutrophil, N=12 donors, FIG. 6, read-out: % Inhibition of MMP9 up-regulation
Text: as §1, §2

mouse neutrophils = experiment: Isoluminol-dependent chemiluminescence assay of MPO secretion in purified mouse neutrophils; type: cell-based
Text: FIGS. 3A-C illustrate the effect of Inhibitors C1, C2, C4, C5, and C6 and comparator Nexinhib 20 (shown as “C20”) on MPO secretion of mouse neutrophils. FIG. 3A is a schematic representation of a cell-based secondary screening assay used to analyze the potency the potency of Rab27a-JFC1 inhibitors for their ability to decrease exocytosis of intact human neutrophil. This cell-based assay measures the secretion of myeloperoxidase (MPO) by human neutrophils using cell-impermeant isoluminol-dependent chemiluminescence in the absence of exogenous peroxidases.
as §1
Extracellular MPO-dependent reactive oxygen species (ROS) production was measured using the chemiluminescence reactions mediated by isoluminol (25). To this end, 3×10^5 neutrophils were resuspended in serum-free RPMI 1640 medium in the presence of cell-impermeant isoluminol, and reactions were carried out in the absence of exogenous peroxidase. Neutrophils were incubated in the presence of compounds or DMSO (0.5%) pin-tooled into 384-well plates in a […]. Control experiments were run in parallel in the presence of [COMPOUND LEFT OUT] (0.5 mM) to inhibit endogenous myeloperoxidase. After addition of stimuli (phorbol 12-myristate 13-acetate, “PMA”) or vehicle using liquid handling devices (BioRaptor FRD, Beckman Coulter), MPO-dependent chemiluminescence was continuously monitored for 30 min at 37 °C using a 2104 EnVision multilabel plate reader. For secretion assays, 0.5×10^6 neutrophils were incubated in RPMI 1640 medium in polystyrene 96-well plates in the presence of Inhibitors or dimethyl sulfoxide (DMSO) control for 1 hour and stimulated for the indicated times at 37 °C with PMA (0.1 μg/ml), GM-CSF (10 ng/ml), and fMLP (1 μM) or DMSO control. The cells were spun down, and supernatants were transferred to clean plates using plate filters to avoid contamination from cellular secretory proteins. MPO was measured by ELISA (R&D Systems).
Results: FIG. 3B is a graph showing the effect of Inhibitors C1, C2, C4, C5, and C6 on secreted MPO-dependent reaction using the isoluminol-dependent chemiluminescence assay in highly purified mouse neutrophils. On the graph of FIG. 3B, the pre-fix “NS” means “no stimuli” where the cells were treated with 10 μM C1, C2, C4, C5, C6, and C20 alone without any exocytosis stimuli. The pre-fix “PMA” means the cells were stimulated with PMA to secrete MPO and were treated with 10 μM of the designated Inhibitor. […] Mean % inhibition: C1, 76.74; C2, 59.85; C4, 70.9; C6, 62.4; C20, 99.22.

[4] = test system: human neutrophils (secretory vesicle marker CD11b); experiment: Flow cytometry of secretory vesicle mobilization (CD11b) in human neutrophils; type: cell-based; details: 10 μM, 1 hour; GM-CSF + fMLP; relative to DMSO; N=15 donors; FIG. 7
Text: as §1, §2

[5] = test system: human neutrophils (azurophilic granule marker CD63); experiment: Flow cytometry of azurophilic granule mobilization (CD63) in human neutrophils; type: cell-based; details: 1 hour, GM-CSF + fMLP; for Inhibition of CD63 up-regulation: 10 μM, relative to DMSO, FIG. 4; for inhibition at 10 µM: Homo sapiens, Neutrophil, N=15 donors, FIG. 4, read-out: Mean % inhibition of CD63 up-regulation
Text: as §1, §2

[6] = 10 μM inhibitor, PMA stimulated, FIG. 3B
[7] = Mus musculus, Neutrophil, 10 μM inhibitor, PMA stimulated, FIG. 3B

SMILES	Inhibition of CD66b up-regulation ([1]; 10 μM, FIG. 5)	inhibition at 10 µM ([1]; N=12 donors)	Mobilization of azurophilic granules (MPO) [2]	Mobilization of gelatinase granules (MMP9) [2]	Neutrophil secretion (hyperactivation of secretion) ([2]; listed as C1)	Neutrophil secretion (hyperactivation of secretion) ([2]; listed as NEIa-C1)	Mobilization of CD63 [2]	Inhibitory effect on wild-type neutrophils (wild-type neutrophils)	Inhibition in MMP9 experiment (words; printed as CD66b up-regulation) [3]	inhibition at 10 µM [3]	Inhibition of exocytosis vs DMSO control (mouse neutrophils; [6])	inhibition at 10 µM (mouse neutrophils; [7])	IC50 (mouse neutrophils; Mus musculus, Neutrophil, dose-response analysis, FIG. 3C)	Release of CD11b+ vesicles / CD11b upregulation [4]	Inhibition of CD63 up-regulation [5]	inhibition at 10 µM [5]	Neutrophil secretion (hyperactivation of secretion) [2]	% inhibition of CD66b up-regulation ([1]; 10 μM, N=12 donors, FIG. 5)	Mean % inhibition of MPO-dependent chemiluminescence (MPO secretion) (mouse neutrophils; [6])
CN(C)c1cccc(/C=C(/C(=O)C(C)(C)C)n2cncn2)c1 [150 (C1)]	marked and significant inhibition of CD66b up-regulation	57.6%	inhibit the mobilization	inhibit the mobilization of gelatinase granules (MMP9)	inhibit the hyperactivation of secretion	significantly inhibit secretion	significantly inhibited the mobilization of CD63	selective inhibitory effect on wild-type neutrophils	marked inhibition of CD66b up-regulation	55.3%	significant inhibition of exocytosis	76.7%	860 nM	unaffected	marked and significant inhibition of CD63 up-regulation	93.1%	–	–	–
CC(C)(C)C(=O)C(=Cc1cccc(O)c1)n1cncn1 [151 (C2)]	marked and significant inhibition of CD66b up-regulation	35.8%	–	–	–	–	–	selective inhibitory effect on wild-type neutrophils	marked inhibition of CD66b up-regulation	26.5%	significant inhibition of exocytosis	59.9%	–	unaffected	marked and significant inhibition of CD63 up-regulation	59.5%	–	–	–
O=C(Nc1ccccc1)/C(=C/c1cccc([N+](=O)[O-])c1)n1cncn1 [152 (C4)]	marked and significant inhibition of CD66b up-regulation	48.1%	inhibit the mobilization	inhibit the mobilization of gelatinase granules (MMP9)	–	–	significantly inhibited the mobilization of CD63	selective inhibitory effect on wild-type neutrophils	–	16.4%	significant inhibition of exocytosis	70.9%	–	unaffected	–	–	inhibit the hyperactivation of secretion	–	–
CNC(=O)/C(=C/c1cccc([N+](=O)[O-])c1)n1cncn1 [153 (C5)]	–	–	–	–	–	–	–	–	–	–	–	–	–	unaffected	–	–	–	–	–
CC(C)(C)C(=O)/C(=C/c1cccc([N+](=O)[O-])c1)n1cncn1 [Nexinhib20, reference compound]	marked and significant inhibition of CD66b up-regulation	–	–	–	–	–	–	–	marked inhibition of CD66b up-regulation	–	–	–	–	significantly inhibited CD11b upregulation at the plasma membrane (to levels lower than basal controls)	marked and significant inhibition of CD63 up-regulation	–	–	100%	99.22%
